Results reported in US20200407370A1, “PEPTIDYLARGININE DEIMINASE INHIBITOR AND USE THEREOF” (Nanjing Transthera Biosciences Co., Ltd., priority 2018, published 2020).
Like-named read-outs stand apart in the source and are kept apart here.

How the values were obtained:
[1] = biological target: T1, Peptidylarginine deiminase 4 (PAD4) (Homo sapiens, UniProt Q9UM07); assay: Assay of enzyme-inhibiting activity (PAD4, FAM-AcH4(1-5) peptide, Caliper detection); assay type: biochemical; conditions: 10 nM PAD4, 5 μM peptide, 0.1 mM Ca2+, pH 8.0
T1 construct: purchased Cayman 10500
T1 sequence (Q9UM07 whole entry): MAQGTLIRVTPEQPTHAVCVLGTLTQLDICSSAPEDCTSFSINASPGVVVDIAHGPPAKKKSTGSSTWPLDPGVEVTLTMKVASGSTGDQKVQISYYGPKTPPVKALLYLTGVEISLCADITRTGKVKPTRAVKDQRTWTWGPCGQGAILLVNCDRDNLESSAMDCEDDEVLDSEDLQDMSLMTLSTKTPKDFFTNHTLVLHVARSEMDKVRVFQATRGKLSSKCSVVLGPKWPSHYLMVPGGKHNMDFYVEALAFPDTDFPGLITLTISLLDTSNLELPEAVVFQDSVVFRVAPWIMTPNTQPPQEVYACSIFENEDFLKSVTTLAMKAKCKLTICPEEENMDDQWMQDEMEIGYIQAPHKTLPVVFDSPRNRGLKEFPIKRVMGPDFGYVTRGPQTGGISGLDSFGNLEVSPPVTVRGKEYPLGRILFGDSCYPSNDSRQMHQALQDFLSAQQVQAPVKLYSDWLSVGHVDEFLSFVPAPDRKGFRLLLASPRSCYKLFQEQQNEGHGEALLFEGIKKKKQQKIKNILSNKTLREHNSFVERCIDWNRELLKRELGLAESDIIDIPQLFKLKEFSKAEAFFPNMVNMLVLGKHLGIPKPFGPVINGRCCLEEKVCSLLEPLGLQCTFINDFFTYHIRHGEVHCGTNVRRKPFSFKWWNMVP
Method: Experimental Example 1: Assay of Enzyme-Inhibiting Activity of Compound
Sample: The compound disclosed herein prepared according to exemplary methods.
Peptidylarginine deiminase 4 (PAD4): Cayman, Cat. No. 10500, Lot. No. 0519694;
Carboxyfluorescein-labeled peptide (Peptide FAM-AcH4 (1-5)): GL Biochem, Cat. No. 0200046, Lot. No. P161110-TL545976;
An appropriate amount of the compound to be assayed was dissolved in DMSO to 10 mM. An appropriate amount of 10 mM mother liquor of the compound to be assayed was diluted to 1.5 mM with DMSO, and the solution was then serially diluted 3-fold with DMSO to give 50× concentrations of gradient compound solutions. Finally, 10-fold dilution was carried out with reaction buffer (an aqueous solution of 100 mM HEPES (2-[4-(2-hydroxyethyl)piperazin-1-yl]ethanesulfonic acid) containing 0.01% v/v Triton, pH 8.0) to give 5× concentrations of gradient compound solutions (150 μM, 50 μM, 16.667 μM, 5.556 μM, 1.852 μM, 0.617 μM, 0.206 μM, 0.069 μM, 0.023 μM, and 0.008 μM).
1) Reaction buffer: aqueous solution of 100 mM HEPES (2-[4-(2-hydroxyethyl)piperazin-1-yl]ethanesulfonic acid) containing 0.01% v/v Triton, pH 8.0;
2) Stop solution: aqueous solution of 100 mM HEPES (2-[4-(2-hydroxyethyl)piperazin-1-yl]ethanesulfonic acid) containing 0.015% w/v Brij-35, 0.2% v/v Coating Reagent (coating solution) #3 (PE, part no. 760050) and 50 mM EDTA, pH 8.0;
3) 2.5× enzyme solution: An appropriate amount of PAD4 was diluted to 2.5× (final concentration: 10 nM) with reaction buffer;
4) 2.5× polypeptide solution: An appropriate amount of carboxyfluorescein -labeled peptide (FAM-AcH4(1-5) peptide) and CaCl2) solution was diluted to 2.5× (the final concentration of polypeptide: 5 μM, the final concentration of Ca^2+: 0.1 mM) with reaction buffer.
5 μL of 5× compound solutions or solvents with different concentrations were added to a 384-well plate, 10 μL of 2.5× enzyme solution was then added, and the plate was incubated at room temperature for 10 min. 10 μL of 2.5× polypeptide solution was then added to each well, and the plate was incubated at 28° C. for a certain period of time. 25 μL of stop solution was added to stop reaction. Caliper was used for detection. The inhibition rate was calculated according to the following formula:
Inhibition percentage=(max−transformation)/(max−min)*100.
“max” denotes DMSO control; and “min” denotes low control.

[2] = Liver microsomal stability in canine; assay type: in vitro ADME; conditions: dog; canine liver microsomes, 0.5 mg protein/mL, 1 μM compound, 37° C.
Method: (§1) Experimental Example 2: Evaluation on Liver Microsomal Stability of the Compound Disclosed Herein in Human/Canine
(§2) An appropriate amount of the compound was precisely weighed and dissolved in DMSO to prepare a 5.0 mM stock solution. 5.0 mM stock solution was diluted to 1.0 mM with DMSO, and then diluted with water to 10 μM, serving as a compound working solution for later use (DMSO content in the reaction system: 0.1% v/v).
(§3) • (1) The liver microsomes (20 mg protein/mL) were taken from a −80° C. refrigerator, pre-incubated on a 37° C. water bath thermostatic oscillator for 3 min, and thawed for use. • (2) A mixed incubation system solution (without compounds or β-NADPH) was prepared according to the proportion of “composition of the incubation system” described above and pre-incubated on a 37° C. water bath thermostatic oscillator for 2 min. • (3) Control group (without β-NADPH): 30 μL of water and 30 μL of compound working solution (10 μM) were added to 240 μL of the mixed incubation system solution in step (2), and the mixture was vortexed for 30 s and mixed. The total volume of the mixture was 300 μL. The sample was duplicated. The reaction solution was placed on a 37° C. water bath thermostatic oscillator for incubation, and timing was started. Samples were collected at 0 min and 60 min. • (4) Sample group: 70 μL of β-NADPH solution (10 mM) and 70 μL of compound working solution (10 μM) were added to 560 μL of the mixed incubation system solution in step (2), and the total volume of the mixture was 700 μL. The mixture was vortexed for 30 s and mixed. The sample was duplicated. The reaction solution was placed on a 37° C. water bath thermostatic oscillator for incubation, and timing was started. Samples were collected at 0 min, 5 min, 10 min, 20 min, 30 min and 60 min after timing. • (5) The reaction solution was vortexed for 3 min, and centrifuged at 12,000 rpm for 5 min. • (6) 50 μL of the supernatant was added to 150 μL of water, and the resulting solution was vortexed and mixed before LC/MS/MS analysis.
(§4) The half-life (t1/2) and clearance (Cl) were calculated using the following first-order kinetic formula:
(§5) Vd=1/protein content in liver microsomes
(§6) Note: k denotes the slope of the logarithm of the remaining amount of a compound vs. time, Vd denotes apparent volume of distribution, C0 denotes drug concentration at 0 h, Ct denotes drug concentration at time t, t denotes time, e denotes natural number, and Clint denotes intrinsic clearance.

[3] = Liver microsomal stability in human; assay type: in vitro ADME; conditions: human liver microsomes, 0.5 mg protein/mL, 1 μM compound, 37° C.
Method: as §1, §2, §3, §4, §5, §6

[4] = Pharmacokinetics (PK) of the compound in rats; assay type: in vivo; conditions: rat, plasma, SD rats
Method: Experimental Example 3: Pharmacokinetics (PK) of the Compound in Rats
The test compound was dissolved in a mixture of 5% v/v DMSO+20% v/v (30% v/v solutol (polyethylene glycol-15 hydroxystearate purchased from BASF, batch no. 84773247G0))+75% v/v brine to prepare a solution, which was then administered to SD rats by oral gavage at a dose of 5.0 mg/kg. Blood samples were collected at 15 min, 30 min, 1 h, 2 h, 4 h, 6 h, 8 h and 24 h.
The test compound was dissolved in a mixture of 5% v/v DMSO+20% v/v (30% v/v solutol)+75% v/v brine to prepare a solution, which was administered to SD rats by intravenous bolus at a dose of 1 mg/kg. Blood samples were collected at 5 min, 15 min, 30 min, 1 h, 2 h, 4 h, 6 h, 8 h and 24 h.
The animals were fixed, with tails warmed in a water bath 10 min before each sampling time point. About 100 μL of blood was collected via the tail vein, and the blood samples were collected in anticoagulation tubes containing EDTA-K2. The blood samples were centrifuged at 8,000 rpm for 6 min at 4° C. to give plasma samples within 30 min after collection. The plasma samples were stored in a refrigerator at −80° C. before test.
The sample was taken out from the −80° C. refrigerator, and vortexed for 5 min after naturally thawed at room temperature. 20 μL of plasma sample was pipetted into a 1.5 mL centrifuge tube, and 200 μL of 100 ng/mL internal standard working solution (a solution of tolbutamide in methanol) was added. The resulting mixture was mixed, vortexed for 5 min, and then centrifuged at 12,000 rpm for 5 min. 50 μL of the supernatant was pipetted into a 96-well plate with 150 μL of water per well, and the plate was vortexed for 5 min before LC-MS/MS analysis.
The concentration was calculated by Analyst 1.6.3 from AB Sciex. Parameters such as mean, standard deviation and coefficient of variation (excluding those output directly by Analyst 1.6.3) were calculated by Microsoft Excel. PK parameters were calculated by Pharsight Phoenix 6.1 software NCA (Tmax was in median).

IC50 [1] | Structure (SMILES) | half-life at 1 μM [2] | half-life at 1 μM [3] | microsomal CLint at 1 μM [3] | microsomal CLint at 1 μM [2] | bioavailability ([4]; IV 1 mg/kg, PO 5 mg/kg, n = 3, read-out: F (absolute bioavailability)) | AUC(0-t) ([4]; IV 1 mg/kg, n = 3, read-out: AUClast iv (area under concentration-time curve 0-24 h)) | clearance ([4]; IV 1 mg/kg, n = 3, read-out: Cl_obs iv (clearance) (converted)) | Vd ([4]; IV 1 mg/kg, n = 3, read-out: Vz_obs iv (apparent volume of distribution)) | half-life ([4]; IV 1 mg/kg, n = 3, read-out: tz1/2 iv (terminal half-life) (converted)) | Tmax ([4]; PO 5 mg/kg, n = 3, median, read-out: Tmax po (time to maximum plasma concentration)) | AUC(0-t) ([4]; PO 5 mg/kg, n = 3, read-out: AUClast po (area under concentration-time curve 0-24 h)) | half-life ([4]; PO 5 mg/kg, n = 3, read-out: tz1/2 po (terminal half-life) (converted))
0.35 µM | CCn1c(-c2nc3cc(C(=O)N4CCC[C@@H](N)C4)cc(OC)c3n2C)cc2ccoc21 [Compound 4, (R)-(3-aminopiperidin-1-yl)(2-(6-ethyl-6H-furo[2,3-b]pyrrol-5-yl)-7-methoxy-1-methyl-1H-benzo[d]imidazol-5-yl)methanone] | 5.5 h | 11.6 h | 2 µL/min/mg |  |  |  |  |  |  |  |  | 
0.054 µM | COc1cc(C(=O)N2CCC[C@@H](N)C2)cc2nc(-c3cc4ccoc4n3CC3CC3)n(C)c12 [Compound 24, (R)-(3-aminopiperidin-1-yl)(2-(6-(cyclopropylmethyl)-6H-furo[2,3-b]pyrrol-5-yl)-7-methoxy-1-methyl-1H-benzo[d]imidazol-5-yl)methanone] |  |  |  |  |  |  |  |  |  |  |  | 

Structure (SMILES) | IC50 [1] | half-life at 1 μM [2] | half-life at 1 μM [3] | microsomal CLint at 1 μM [3] | microsomal CLint at 1 μM [2] | bioavailability ([4]; IV 1 mg/kg, PO 5 mg/kg, n = 3, read-out: F (absolute bioavailability)) | AUC(0-t) ([4]; IV 1 mg/kg, n = 3, read-out: AUClast iv (area under concentration-time curve 0-24 h)) | clearance ([4]; IV 1 mg/kg, n = 3, read-out: Cl_obs iv (clearance) (converted)) | Vd ([4]; IV 1 mg/kg, n = 3, read-out: Vz_obs iv (apparent volume of distribution)) | half-life ([4]; IV 1 mg/kg, n = 3, read-out: tz1/2 iv (terminal half-life) (converted)) | Tmax ([4]; PO 5 mg/kg, n = 3, median, read-out: Tmax po (time to maximum plasma concentration)) | AUC(0-t) ([4]; PO 5 mg/kg, n = 3, read-out: AUClast po (area under concentration-time curve 0-24 h)) | half-life ([4]; PO 5 mg/kg, n = 3, read-out: tz1/2 po (terminal half-life) (converted))
CCn1c(-c2nc3cc(C(=O)N4CCC[C@@H](N)C4)cc(OC)c3n2C)cc2cccnc21 [Compound GSK199, reference compound] | 0.14 µM | 12.8 h | 4.45 h | 5.2 µL/min/mg | 1.8 µL/min/mg | 33.1% | 330 ng·h/mL | 48.2 mL/min/kg | 6.75 L/kg | 1.63 h | 4 h | 496 ng·h/mL | 2.23 h
